Starred links: 1 amine or outer side, 2 acyl side, 3 side chain; linkers in the order of their positions; H or OH if unused. Positions of bridges follow the written chain, without caps; N, C: chain ends. Non-standard residues stand in square brackets, D forms with d. Residues, ends and D or L forms follow the SMILES beside them. *: point of attachment. Bip(4'-NHCO-C6H4-3-CH2COOH) = N[C@@H](Cc1ccc(-c2ccc(NC(=O)c3cccc(CC(=O)O)c3)cc2)cc1)C(=O)O; X56 = O=C(O)COc1cccc(NC(=O)c2ccc(-c3ccc(C[C@H](N[*:1])C(=O)[*:2])cc3)cc2)c1; X65 = O=C(O)Cc1cccc(NC(=O)c2ccc(-c3ccc(C[C@H](N[*:1])C(=O)[*:2])cc3)cc2)c1; X21 = N=C(NCCC[C@@H](N[*:1])C(=O)[*:2])NC[C@H](O)[C@@H](O)[C@@H](O)CO; Bip(4'-NH) = O=C([C@H](Cc1ccc(-c2ccc(N[*:3])cc2)cc1)N[*:1])[*:2]; dArg(ω-(3-HO-benzyl)) = N=C(NCCC[C@@H](N)C(=O)O)NCc1cccc(O)c1; Indazole3carbonyl(1-CH2COOH) = O=C(O)Cn1nc(C(=O)*)c2ccccc21; Bip(4'-COOH) = N[C@@H](Cc1ccc(-c2ccc(C(=O)O)cc2)cc1)C(=O)O; Indole3carbonyl(1-CH2COOH) = O=C(O)Cn1cc(C(=O)*)c2ccccc21; X68 = N=C(NCCC[C@@H](N[*:1])C(=O)[*:2])NCc1ccc(O)c(O)c1; dArg(ω-Bn) = N=C(NCCC[C@@H](N)C(=O)O)NCc1ccccc1; Ala(morpholin-4-yl) = N[C@@H](CN1CCOCC1)C(=O)O; Phe(3-CONH2) = NC(=O)c1cccc(C[C@H](N)C(=O)O)c1; Bip = N[C@@H](Cc1ccc(-c2ccccc2)cc1)C(=O)O; 2Pal = N[C@@H](Cc1ccccn1)C(=O)O; 2Thi = N[C@@H](Cc1cccs1)C(=O)O; Cha = N[C@@H](CC1CCCCC1)C(=O)O; Sar = CNCC(=O)O
Biological target: TNFα (Homo sapiens, UniProt P01375)
Sequence (P01375 77-233 limits assumed): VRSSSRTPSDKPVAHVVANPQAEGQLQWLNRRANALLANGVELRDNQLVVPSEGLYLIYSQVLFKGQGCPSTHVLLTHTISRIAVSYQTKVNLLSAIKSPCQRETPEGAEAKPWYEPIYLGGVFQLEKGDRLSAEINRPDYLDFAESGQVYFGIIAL
Experiment: TNF-Induced HEK-Blue Assay
Type: cell-based
Conditions: not given

SMILES	IC50 [nM]
CC(C)C[C@@H]1NC(=O)[C@H](Cc2ccc(O)cc2)NC(=O)[C@H](C(C)C)NC(=O)[C@@H]2CCCN2C(=O)[C@H](C(C)C)NC(=O)[C@@H](CCCNC(=N)NCc2cccc(O)c2)NC(=O)[C@H](CC(=O)O)NC(=O)[C@@H]2CCCN2C(=O)CN(C)C(=O)[C@H](Cc2ccc(-c3ccc(NC(=O)c4nn(CC(=O)O)c5ccccc45)cc3)cc2)NC(=O)[C@H](Cc2ccc(-c3ccccc3)cc2)NC(=O)[C@H](CN2CCOCC2)NC(=O)CSC[C@@H](C(=O)NCC(N)=O)NC1=O [Example 625] ({CH2CO}-[Ala(morpholin-4-yl)][Bip][Bip(4'-NH)](Indazole3carbonyl(1-CH2COOH))[Sar]PD[dArg(ω-(3-HO-benzyl))]VPVYLCG-NH2; thioether N-13)	< 50
CC(C)C[C@@H]1NC(=O)[C@H](Cc2cccs2)NC(=O)[C@H](C(C)C)NC(=O)[C@@H]2CCCN2C(=O)[C@H](C(C)C)NC(=O)[C@@H](CCCNC(=N)NCc2cccc(O)c2)NC(=O)[C@H](CC(=O)O)NC(=O)[C@H](Cc2ccccn2)NC(=O)CN(C)C(=O)[C@H](Cc2ccc(-c3ccc(NC(=O)c4nn(CC(=O)O)c5ccccc45)cc3)cc2)NC(=O)[C@H](Cc2ccc(-c3ccccc3)cc2)NC(=O)[C@H](CN2CCOCC2)NC(=O)CSC[C@@H](C(=O)NCC(N)=O)NC1=O [Example 626] ({CH2CO}-[Ala(morpholin-4-yl)][Bip][Bip(4'-NH)](Indazole3carbonyl(1-CH2COOH))[Sar][2Pal]D[dArg(ω-(3-HO-benzyl))]VPV[2Thi]LCG-NH2; thioether N-13)	50 to 200
CC(C)C[C@@H]1NC(=O)[C@H](Cc2cnc[nH]2)NC(=O)[C@H](C(C)C)NC(=O)[C@@H]2CCCN2C(=O)[C@H](C(C)C)NC(=O)[C@@H](CCCNC(=N)NCc2ccccc2)NC(=O)[C@H](CC(=O)O)NC(=O)[C@H](Cc2ccccn2)NC(=O)CN(C)C(=O)[C@H](Cc2ccc(-c3ccc(NC(=O)c4nn(CC(=O)O)c5ccccc45)cc3)cc2)NC(=O)[C@H](Cc2ccc(-c3ccccc3)cc2)NC(=O)[C@H](CN2CCOCC2)NC(=O)CSC[C@@H](C(=O)NCC(N)=O)NC1=O [Example 628] ({CH2CO}-[Ala(morpholin-4-yl)][Bip][Bip(4'-NH)](Indazole3carbonyl(1-CH2COOH))[Sar][2Pal]D[dArg(ω-Bn)]VPVHLCG-NH2; thioether N-13)	< 50
CC(C)C[C@@H]1NC(=O)[C@H](Cc2cnc[nH]2)NC(=O)[C@H](C(C)C)NC(=O)[C@@H]2CCCN2C(=O)[C@H](C(C)C)NC(=O)[C@@H](CCCNC(=N)NCc2ccccc2)NC(=O)[C@H](CC(=O)O)NC(=O)[C@H](Cc2ccccn2)NC(=O)CN(C)C(=O)[C@H](Cc2ccc(-c3ccc(NC(=O)c4cn(CC(=O)O)c5ccccc45)cc3)cc2)NC(=O)[C@H](Cc2ccc(-c3ccccc3)cc2)NC(=O)[C@H](CN2CCOCC2)NC(=O)CSC[C@@H](C(=O)NCC(N)=O)NC1=O [Example 629] ({CH2CO}-[Ala(morpholin-4-yl)][Bip][Bip(4'-NH)](Indole3carbonyl(1-CH2COOH))[Sar][2Pal]D[dArg(ω-Bn)]VPVHLCG-NH2; thioether N-13)	50 to 200
CC(C)C[C@@H]1NC(=O)[C@H](CCCNC(=N)N)NC(=O)[C@H](C(C)C)NC(=O)[C@@H]2CCCN2C(=O)[C@H](C(C)C)NC(=O)[C@@H](CCCNC(=N)NCc2ccc(O)c(O)c2)NC(=O)[C@H](CC(=O)O)NC(=O)[C@@H]2CCCN2C(=O)CN(C)C(=O)[C@H](Cc2ccc(-c3ccc(NC(=O)c4nn(CC(=O)O)c5ccccc45)cc3)cc2)NC(=O)[C@H](Cc2ccc(-c3ccccc3)cc2)NC(=O)[C@H](CN2CCOCC2)NC(=O)CSC[C@@H](C(=O)NCC(N)=O)NC1=O [Example 635] ({CH2CO}-[Ala(morpholin-4-yl)][Bip][Bip(4'-NH)](Indazole3carbonyl(1-CH2COOH))[Sar]PD[X68]VPVRLCG-NH2; thioether N-13)	< 50

Same assay, conditions: HEK-Blue-CD40L cells, NF-kB-driven secreted alkaline phosphatase reporter; TNFα 0.5 ng/ml; 18 h; read-out: TNF induced HEK-Blue assay IC50 value

IC50 [nM]	SMILES
50 to 200	CC(C)C[C@@H]1NC(=O)[C@H](CCCNC(=N)N)NC(=O)[C@H](C(C)C)NC(=O)[C@@H]2CCCN2C(=O)[C@H](C(C)C)NC(=O)[C@@H](CCCNC(=N)NC[C@H](O)[C@@H](O)[C@@H](O)CO)NC(=O)[C@H](CC(=O)O)NC(=O)[C@@H]2CCCN2C(=O)CN(C)C(=O)[C@H](Cc2ccc(-c3ccc(NC(=O)c4cccc(CC(=O)O)c4)cc3)cc2)NC(=O)[C@H](Cc2ccc(-c3ccccc3)cc2)NC(=O)[C@H](CN2CCOCC2)NC(=O)CSC[C@@H](C(=O)NCC(N)=O)NC1=O [Example 627] ({CH2CO}-[Ala(morpholin-4-yl)][Bip][Bip(4'-NHCO-C6H4-3-CH2COOH)][Sar]PD[X21]VPVRLCG-NH2; thioether N-13)
50 to 200	CC[C@H](C)[C@@H]1NC(=O)[C@@H](CCCNC(=N)N)NC(=O)[C@H](CC(=O)O)NC(=O)[C@H](Cc2cnc[nH]2)NC(=O)CN(C)C(=O)[C@H](Cc2ccc(-c3ccc(C(=O)Nc4cccc(CC(=O)O)c4)cc3)cc2)NC(=O)[C@H](Cc2ccc(-c3ccc(C(=O)O)cc3)cc2)NC(=O)[C@H](CC2CCCCC2)NC(=O)CSC[C@@H](C(=O)NCC(N)=O)NC(=O)[C@H](CC(C)C)NC(=O)[C@H](Cc2cnc[nH]2)NC(=O)[C@H](C(C)C)NC(=O)[C@@H]2CCCN2C1=O [Example 630] ({CH2CO}-[Cha][Bip(4'-COOH)][X65][Sar]HD[dR]IPVHLCG-NH2; thioether N-13)
50 to 200	CC[C@H](C)[C@@H]1NC(=O)[C@@H](CCCNC(=N)N)NC(=O)[C@H](CC(=O)O)NC(=O)[C@H](Cc2cnc[nH]2)NC(=O)CN(C)C(=O)[C@H](Cc2ccc(-c3ccc(C(=O)Nc4cccc(OCC(=O)O)c4)cc3)cc2)NC(=O)[C@H](Cc2ccc(-c3ccccc3)cc2)NC(=O)[C@H](Cc2cccc(C(N)=O)c2)NC(=O)CSC[C@@H](C(=O)NCC(N)=O)NC(=O)[C@H](CC(C)C)NC(=O)[C@H](Cc2cnc[nH]2)NC(=O)[C@H](C(C)C)NC(=O)[C@@H]2CCCN2C1=O [Example 631] ({CH2CO}-[Phe(3-CONH2)][Bip][X56][Sar]HD[dR]IPVHLCG-NH2; thioether N-13)
50 to 200	CC[C@H](C)[C@@H]1NC(=O)[C@@H](CCCNC(=N)N)NC(=O)[C@H](CC(=O)O)NC(=O)[C@H](Cc2cnc[nH]2)NC(=O)CN(C)C(=O)[C@H](Cc2ccc(-c3ccc(C(=O)Nc4cccc(OCC(=O)O)c4)cc3)cc2)NC(=O)[C@H](Cc2ccc(-c3ccc(C(=O)O)cc3)cc2)NC(=O)[C@H](Cc2cccc(C(N)=O)c2)NC(=O)CSC[C@@H](C(=O)NCC(N)=O)NC(=O)[C@H](CC(C)C)NC(=O)[C@H](Cc2cnc[nH]2)NC(=O)[C@H](C(C)C)NC(=O)[C@@H]2CCCN2C1=O [Example 632] ({CH2CO}-[Phe(3-CONH2)][Bip(4'-COOH)][X56][Sar]HD[dR]IPVHLCG-NH2; thioether N-13)
50 to 200	CC[C@H](C)[C@@H]1NC(=O)[C@@H](CCCNC(=N)N)NC(=O)[C@H](CC(=O)O)NC(=O)[C@H](Cc2cnc[nH]2)NC(=O)CN(C)C(=O)[C@H](Cc2ccc(-c3ccc(C(=O)Nc4cccc(CC(=O)O)c4)cc3)cc2)NC(=O)[C@H](Cc2ccc(-c3ccc(C(=O)O)cc3)cc2)NC(=O)[C@H](Cc2cccc(C(N)=O)c2)NC(=O)CSC[C@@H](C(=O)NCC(N)=O)NC(=O)[C@H](CC(C)C)NC(=O)[C@H](Cc2cnc[nH]2)NC(=O)[C@H](C(C)C)NC(=O)[C@@H]2CCCN2C1=O [Example 634] ({CH2CO}-[Phe(3-CONH2)][Bip(4'-COOH)][X65][Sar]HD[dR]IPVHLCG-NH2; thioether N-13)

Source: patent publication US20250145665A1, “MACROCYCLIC PEPTIDES USEFUL AS MODULATORS OF TNF ALPHA” (Bristol-Myers Squibb Company, priority 2023, published 2025)
